In US20240408223A1 (REGENERON PHARMACEUTICALS, INC., priority 2017, published 2024):
Values after ≈ are worked out from the molar mass of the structure shown. *1 amine or outer side, *2 acyl side, *3 side chain or, on linkers, in order; H or OH if unused. Where a SMILES comes first, the peptide text is derived from it. [ ]: non-standard residue; d: D form. The star is where a group is joined. X4 = C[N+](C)(C)CCNC(=O)CCOCCOCCOCCOCCn1nnc2c1CCCCCC2OCC(=O)*; Dolaproine = CO[C@@H]([C@@H]1CCCN1)[C@@H](C)C(=O)O; X3 = O=C(COC1CCCCCc2c1nnn2CCOCCOCCOCCOCCOCCO)*; Dil = CC[C@H](C)[C@H](NC)[C@@H](CC(=O)O)OC; PABC = O=C(OCc1ccc(N[*:1])cc1)[*:2]; DBCO = C1#Cc2ccccc2N(*)Cc2ccccc21; X1 = C[C@@H](N*)[C@@H](O)c1ccccc1; Cit = NC(=O)NCCC[C@H](N)C(=O)O; PEG4 = NCCOCCOCCOCCOCCC(=O)O; Suc = O=C(CCC(=O)[*:2])[*:1]; NMeV = CN[C@H](C(=O)O)C(C)C

Tests used:
[1] = Solubility test in water, LCMS against standard curve
Protocol: (§1) The DMSO solution (1 mg/mL, 0.5 mL) was diluted with water (4.5 mL) to generate solution A (0.1 mg/mL, 5 mL, 0.5 mg). Solution A (0.1 mg/mL, 0.5 mL) was diluted with water (4.5 mL) to generate solution B (0.01 mg/mL, 5 mL, 0.05 mg). Solution B (0.01 mg/mL, 0.5 mL) was diluted with water (4.5 mL) to generate solution C (1 μg/mL, 5 mL, 5 μg). Solution C (1 μg/mL, 0.5 mL) was diluted with water (4.5 mL) to generate solution D (0.1 μg/mL, 5 mL, 0.5 μg). The testing sample (0.05 mg) was suspended in water (1 mL), and was sonicated for 5-30 min to dissolve the sample. If no clear solution was observed, the resulting suspension was centrifuged and the clear supernatant solution was collected for analysis. All the standard solutions A, B, C, D and sample solutions were tested using same method on the same LC-MS instrument. Solubility was assessed by LCMS and calculated based on a standard curve.

Human liver Cathepsin B = Human liver Cathepsin B (Homo sapiens, UniProt P07858); assay: Cathepsin B cleavage assay of linker-payloads
Protocol: For the assay, the linker-payload stock solution (10 mM of linker-payload in DMSO) was added into a solution of 100 mM NaOAc, 10 mM dithiothreitol, at pH5 to obtain a 50 μM substrate solution. […] The Cathepsin B and substrate solution was mixed with and without 10 mM of a Cathepsin B inhibitor (CA074; APE Bio, Cat #A1926), and incubated at 37° C. for 4 hours. Following the 4 hour incubation, acetic acid and then acetonitrile were added to stop the reaction. The quenched samples then underwent centrifugation at 14,000 rpm. Aliquots of the resultant supernatants were then diluted with equal volume of water and analyzed by LC/MS to determine the amount of payload released.

[2] = pH stability in buffers, determined by LC-MS; type: physicochemical
Protocol: pH stability was assessed as follows. 0.1 mg of sample was dissolved into 0.2-0.3 mL of DMSO, and the resulting solution was added dropwise into different pH buffers (1 mL) while maintain clear solutions during testing time period. The samples were collected from several time points (e.g., over 72 hours), and pH stability was determined by LC-MS. pH buffer was prepared as follows: pH 8.0 sodium borate buffer: Add 9.534 g Sodium borate decahydrate, 1.461 g Sodium chloride, and 0.393 g DTPA to 900 mL distilled water, make sure all powers dissolve completely, then make final volume to 1 L by adding water. pH 7.4 sodium borate buffer: Add […], 9.534 g Sodium borate decahydrate, 1.461 g Sodium chloride, and 0.393 g DTPA to 900 mL distilled water, make sure all powers dissolve completely, then make final volume to 1 L by adding water. pH 5.0 succinate acid buffer: Add 10 mM succinate acid to 150 mL distilled water, and then change the pH to pH5.0 by adding 0.5M NaOH, then make final volume to 250 mL by adding water. pH 7.4 PBS buffer: commercially available. Stability was assessed at 72 hours by LCMS.

[3] = Solubility (mg/mL), in water, Table 3-1
[4] = pH7.4 and 8 buffer, RT, Table 3-1
[5] = Solubility (mg/mL), in water, Table 3
[6] = pH7.4 or 8 buffer, room temperature, Table 3

Protocol for physchem: as §1

Structure (SMILES)	solubility [1, 3] [µg/mL]	CapB cleavage rate (%) at 4 hrs (Human liver Cathepsin B; Table 1D) [%]	pH Stability [2, 4]	CapB cleavage rate (%) at 4 hrs (Human liver Cathepsin B; Table 1C) [%]	also measured
CC[C@H](C)[C@@H]([C@@H](CC(=O)N1CCC[C@H]1[C@H](OC)[C@@H](C)C(=O)N[C@H](C)[C@@H](O)c1ccccc1)OC)N(C)C(=O)[C@@H](NC(=O)[C@H](C(C)C)N(C)C(=O)OCc1ccc(NC(=O)[C@H](CCCNC(N)=O)NC(=O)[C@@H](NC(=O)[C@@H](CCCCNC(=O)COC2CCCCCc3c2nnn3CCOCCOCCOCCOCCOCCP(=O)(O)O)NC(=O)CCOCCOCCOCCOCCNC(=O)CCC(=O)N2Cc3ccccc3C#Cc3ccccc32)C(C)C)cc1)C(C)C (stereo partly shown)	250 (≈ 108 µM)	50	Y (stable in pH7.4 and 8 buffer at RT for more than 3 days)	–	–
CC[C@H](C)[C@@H]([C@@H](CC(=O)N1CCC[C@H]1[C@H](OC)[C@@H](C)C(=O)N[C@H](C)[C@@H](O)c1ccccc1)OC)N(C)C(=O)[C@@H](NC(=O)[C@H](C(C)C)N(C)C(=O)OCc1ccc(NC(=O)[C@H](CCCNC(N)=O)NC(=O)[C@@H](NC(=O)[C@@H](CCCCNC(=O)COC2CCCCCc3c2nnn3CCOCCOCCOCCOCCOCCO)NC(=O)CCOCCOCCOCCOCCNC(=O)CCC(=O)N2Cc3ccccc3C#Cc3ccccc32)C(C)C)cc1)C(C)C (stereo partly shown) [1a] ({DBCO-Suc-PEG4}-[dK](X3)V[Cit][PABC][NMeV]V[Dil][Dolaproine]-X1)	–	–	Y (stable in pH7.4 and 8 buffer at RT for more than 3 days)	–	solubility (physchem): 170 µg/mL (≈ 75.3 µM)
CCCC1O[C@@H]2C[C@H]3[C@@H]4C[C@H](F)C5=CC(=O)C=C[C@]5(C)[C@@]4(F)[C@@H](O)C[C@]3(C)[C@]2(C(=O)CNC(=O)OCc2ccc(NC(=O)[C@H](CCCNC(N)=O)NC(=O)[C@@H](NC(=O)[C@@H](CCCCNC(=O)COC3CCCCCc4c3nnn4CCOCCOCCOCCOCCC(=O)NCCS(=O)(=O)O)NC(=O)CCOCCOCCOCCOCCNC(=O)CCC(=O)N3Cc4ccccc4C#Cc4ccccc43)C(C)C)cc2)O1 (stereo partly shown) [1e]	> 10000	79.6	Y (stable in pH7.4 and 8 buffer at RT for more than 3 days)	79.6	solubility [1, 5]: > 10000 µg/mL; pH Stability [2, 6]: Y (stable in pH7.4 or 8 buffer at room temperature for more than 3 days)
CCCC1O[C@@H]2C[C@H]3[C@@H]4C[C@H](F)C5=CC(=O)C=C[C@]5(C)[C@@]4(F)[C@@H](O)C[C@]3(C)[C@]2(C(=O)CNC(=O)OCc2ccc(NC(=O)[C@H](CCCNC(N)=O)NC(=O)[C@@H](NC(=O)[C@@H](CCCCNC(=O)COC3CCCCCc4c3nnn4CCN(CC(=O)NCCS(=O)(=O)O)CC(=O)NCCS(=O)(=O)O)NC(=O)CCOCCOCCOCCOCCNC(=O)CCC(=O)N3Cc4ccccc4C#Cc4ccccc43)C(C)C)cc2)O1 (stereo partly shown) [1f]	–	63.0	–	63.0	–
CCCC1O[C@@H]2C[C@H]3[C@@H]4C[C@H](F)C5=CC(=O)C=C[C@]5(C)[C@@]4(F)[C@@H](O)C[C@]3(C)[C@]2(C(=O)COc2ccc(NC(=O)[C@H](C)NC(=O)[C@@H](NC(=O)[C@@H](CCCCNC(=O)COC3CCCCCc4c3nnn4CCOCCOCCOCCOCCC(=O)NCCS(=O)(=O)O)NC(=O)CCOCCOCCOCCOCCNC(=O)CCC(=O)N3Cc4ccccc4C#Cc4ccccc43)C(C)C)cc2)O1 (stereo partly shown) [1j]	> 10000	30.8	Y (stable in pH7.4 and 8 buffer at RT for more than 3 days)	30.8	solubility [1, 5]: > 10000 µg/mL; pH Stability [2, 6]: Y (stable in pH7.4 or 8 buffer at room temperature for more than 3 days)
CCCC1O[C@@H]2C[C@H]3[C@@H]4C[C@H](F)C5=CC(=O)C=C[C@]5(C)[C@@]4(F)[C@@H](O)C[C@]3(C)[C@]2(C(=O)COc2ccc(NC(=O)[C@H](CCCNC(N)=O)NC(=O)[C@@H](NC(=O)[C@@H](CCCCNC(=O)COC3CCCCCc4c3nnn4CCOCCOCCOCCOCCC(=O)NCCS(=O)(=O)O)NC(=O)CCOCCOCCOCCOCCNC(=O)CCC(=O)N3Cc4ccccc4C#Cc4ccccc43)C(C)C)cc2)O1 (stereo partly shown) [1k]	> 1000	31.0	Y (stable in pH7.4 and 8 buffer at RT for more than 3 days)	31.0	solubility [1, 5]: > 1000 µg/mL; pH Stability [2, 6]: Y (stable in pH7.4 or 8 buffer at room temperature for more than 3 days)
CC(C)[C@H](NC(=O)[C@@H](CCCCNC(=O)COC1CCCCCc2c1nnn2CCOCCOCCOCCOCCC(=O)NCCS(=O)(=O)O)NC(=O)CCOCCOCCOCCOCCNC(=O)CCC(=O)N1Cc2ccccc2C#Cc2ccccc21)C(=O)N[C@@H](C)C(=O)Nc1ccc2c(c1)[C@@]1(C)CCC[C@](C)(C(=O)NC(=O)[C@@]3(C)CCC[C@]4(C)c5cc(O)ccc5CC[C@@H]34)[C@@H]1CC2 (stereo partly shown) [1m]	–	44.2	–	44.2	–
CC(C)[C@H](NC(=O)[C@@H](CCCCNC(=O)COC1CCCCCc2c1nnn2CCOCCOCCOCCOCCC(=O)NCCS(=O)(=O)O)NC(=O)CCOCCOCCOCCOCCNC(=O)CCC(=O)N1Cc2ccccc2C#Cc2ccccc21)C(=O)N[C@@H](CCCNC(N)=O)C(=O)Nc1ccc(COC(=O)N[C@@H](CO)C(=O)Nc2ccc3c(c2)[C@@]2(C)CCC[C@](C)(C(=O)NC(=O)[C@@]4(C)CCC[C@]5(C)c6cc(O)ccc6CC[C@@H]45)[C@@H]2CC3)cc1 (stereo partly shown) [1q]	–	30.4	Y (stable in pH7.4 and 8 buffer at RT for more than 3 days)	–	solubility [1]: 170 µg/mL (≈ 75.7 µM)
CCCC1O[C@@H]2C[C@H]3[C@@H]4C[C@H](F)C5=CC(=O)C=C[C@]5(C)[C@@]4(F)[C@@H](O)C[C@]3(C)[C@]2(C(=O)CNC(=O)OCc2ccc(NC(=O)[C@H](CCCNC(N)=O)NC(=O)[C@@H](NC(=O)CCOCCOCCOCCOCCNC(=O)CCC(=O)N3Cc4ccccc4C#Cc4ccccc43)C(C)C)cc2)O1 (stereo partly shown) [10a]	20 (≈ 14.2 µM)	18.6	Y (stable in pH7.4 and 8 buffer at RT for more than 3 days)	–	–
CC(C)[C@H](NC(=O)CCOCCOCCOCCOCCNC(=O)CCC(=O)N1Cc2ccccc2C#Cc2ccccc21)C(=O)N[C@@H](C)C(=O)Nc1ccc2c(c1)[C@@]1(C)CCC[C@](C)(C(=O)NC(=O)[C@@]3(C)CCC[C@]4(C)c5cc(O)ccc5CC[C@@H]34)[C@@H]1CC2 [10b, 1-(4-{2-Azatricyclo[10.4.0.0^4,9]hexadeca-1(12),4(9),5,7,13,15-hexaen-10-yn-2-yl}-4-oxobutanamido)-N-[(1 S)-1-{[(1 S)-1-{[(4bS,8S,8aR)-8-{[(1 S,4aS,10aR)-6-hydroxy-1,4a-dimethyl-1,2,3,4,4a,9,10,10a-octahydrophenanthrene-1-carbonyl]carbamoyl}-4b,8-dimethyl-4b,5,6,7,8,8a,9,10-octahydrophenanthren-3-yl]carbamoyl}ethyl]carbamoyl}-2-methylpropyl]-3,6,9,12-tetraoxapentadecan-15-amide]	–	–	–	–	solubility [1]: < 100 µg/mL
CCCC1O[C@@H]2C[C@H]3[C@@H]4C[C@H](F)C5=CC(=O)C=C[C@]5(C)[C@@]4(F)[C@@H](O)C[C@]3(C)[C@]2(C(=O)COc2ccc(NC(=O)OCc3ccc(NC(=O)[C@H](CCCNC(N)=O)NC(=O)[C@@H](NC(=O)CCOCCOCCOCCOCCNC(=O)CCC(=O)N4Cc5ccccc5C#Cc5ccccc54)C(C)C)cc3)cc2)O1 (stereo partly shown) [10c]	–	<5	Y (stable in pH7.4 and 8 buffer at RT for more than 3 days)	–	solubility (physchem; Solubility): < 10 µg/mL; solubility (physchem; Solubility (mg/mL)): < 100 µg/mL
CC[C@H](C)[C@@H]([C@@H](CC(=O)N1CCC[C@H]1[C@H](OC)[C@@H](C)C(=O)N[C@H](C)[C@@H](O)c1ccccc1)OC)N(C)C(=O)[C@@H](NC(=O)[C@H](C(C)C)N(C)C(=O)OCc1ccc(NC(=O)[C@H](CCCNC(N)=O)NC(=O)[C@@H](NC(=O)CCOCCOCCOCCOCCNC(=O)CCC(=O)N2Cc3ccccc3C#Cc3ccccc32)C(C)C)cc1)C(C)C [10d] ({DBCO-Suc-PEG4}-V[Cit][PABC][NMeV]V[Dil][Dolaproine]-X1)	–	–	Y (stable in pH7.4 and 8 buffer at RT for more than 3 days)	–	solubility (physchem): < 100 µg/mL
CCCC1O[C@@H]2C[C@H]3[C@@H]4C[C@H](F)C5=CC(=O)C=C[C@]5(C)[C@@]4(F)[C@@H](O)C[C@]3(C)[C@]2(C(=O)COc2ccc(NC(=O)OCc3ccc(NC(=O)[C@H](CCCNC(N)=O)NC(=O)[C@@H](NC(=O)[C@@H](CCCCNC(=O)COC4CCCCCc5c4nnn5CCOCCOCCOCCOCCC(=O)NCC[N+](C)(C)C)NC(=O)CCOCCOCCOCCOCCNC(=O)OC[C@@H]4[C@@H]5CCC#CCC[C@@H]54)C(C)C)cc3)cc2)O1 (stereo partly shown) [IIIe]	> 10000	–	Y (stable in pH7.4 and 8 buffer at RT for more than 3 days)	–	–
CC[C@H](C)[C@@H]([C@@H](CC(=O)N1CCC[C@H]1[C@H](OC)[C@@H](C)C(=O)N[C@H](C)[C@@H](O)c1ccccc1)OC)N(C)C(=O)[C@@H](NC(=O)[C@H](C(C)C)N(C)C(=O)OCc1ccc(NC(=O)[C@H](CCCNC(N)=O)NC(=O)[C@@H](NC(=O)[C@@H](CCCCNC(=O)COC2CCCCCc3c2nnn3CCOCCOCCOCCOCCC(=O)NCC[N+](C)(C)C)NC(=O)CCOCCOCCOCCOCCNC(=O)CCC(=O)N2Cc3ccccc3C#Cc3ccccc32)C(C)C)cc1)C(C)C (stereo partly shown) [Ib] ({DBCO-Suc-PEG4}-[dK](X4)V[Cit][PABC][NMeV]V[Dil][Dolaproine]-X1)	–	65	–	–	–
